{
  "source": "patent US6294568A",
  "about": "“5-arylpyrrole derivatives” (priority 1997, dated 2001)",
  "key": {"CaCo-2 cells": {"test_system": "CaCo-2 cells", "test": "Cytostatic Action Test on Various Cells (XTT method)", "assay_type": "cell-based", "method": "The cytostatic measurement of the various cancer cells were conducted according to the method of the U.S. National Cancer Institute (NCI). Adhesive cells such as CaCo-2 and HepG2 were adjusted in each of the specified culture mediums at 0.5×10^5 cells/ml concentration and pipetted into a 96 well-plate (Costar3695) in an amount of 100 μl/well. The cells were cultured under the conditions of at 37° C. in 5% CO2 atmosphere for 24 hours to allow the cell adhesion, and then the numbers of each of the cells were determined by the XTT method to be recorded as the cell number of day 0 (C0days). After that, only the medium solutions were exchanged in the control groups, and culture mediums each containing the test samples adjusted to each of the specified concentrations were exchanged In the test sample dispensing groups, then the cells were cultured under the conditions of at 37° C. in 5% CO2 atmosphere for 72 hours. The numbers of each of the cells were determined by the XTT method to be recorded as the cell number of day 3 (C3days). Further, only the medium solutions were pipetted into the control groups and the test sample administration groups were adjusted to 5×10^5 cells/ml concentrations in each of the specified culture mediums containing the test samples adjusted to each of the specified concentrations, then pipetted into a 96 well-plate (Costar3695) in an amount of 100 μl/well. The cells were cultured under the condition of at 37° C. in 5% CO2 atmosphere for 72 hours, and the number of each of the cells (T3days) were determined in the same manner.\nCell proliferation rate (%) with respect to control groups=[(T3days\n-C0days)/(C3days -C0days)]×100 Formula: 5"}, "Sarcoma 180 solid tumor": {"test_system": "Sarcoma 180 solid tumor", "test": "Antitumor Effect with respect to Sarcoma 180 Solid Tumor Mouse", "assay_type": "in vivo, ICR mice", "conditions": "10 mg/kg in abdominal cavity, 10 days; day 11", "method": "The antitumor effect test was conducted according to the method of the U. S. National Cancer Institute (NCI) (Cancer Chemotherapy Reports part 3, Vol. 3, 1 (1978)). Cell suspension of Sarcoma 180 cells (mouse sarcoma virus) which was employed as the tumor cell strain for transplant was prepared by diluting the cells in the Hank's solution at 2×10^7 cells/ml concentration ([…]), and ICR mice (10 mice per group) aged 5 weeks were injected subcutaneously with 0.2 ml of the cell suspension at the region of the back. Setting the day of the tumor transplantation as day 0. the mice were administered in the abdominal cavity with the compounds of the invention (Preparation Examples 1 and 37), 5-fluorouracyl, and the solution as the control for 10 days consecutively from day 1. On day 11, the mice were sacrificed, and portions of the solid tumor were removed so that weights thereof were measured. The dosage of each of the test samples was 10 mg/kg."}},
  "data": [
    {"smiles": "Cc1cc(-c2ccc(F)cc2)c(-c2ccc(S(C)(=O)=O)cc2)[nH]1", "note": "[Preparation Example 1, 4-(4-fluorophenyl)-2-methyl-5-(4-methylsulfonylphenyl)-1H-pyrrole]", "values": [
      {"measurement": "cytostatic action", "setting": "CaCo-2 cells; CaCo-2 cells, colon cancer cells", "result": "demonstrated a cytostatic action with respect to CaCo-2 cells"},
      {"measurement": "IC50", "setting": "CaCo-2 cells; Homo sapiens, CaCo-2, 72 hours, XTT method, read-out: Cytostatic rate (IC50)", "result": 0.78, "unit": "µM"},
      {"measurement": "Tumor Weight", "setting": "Sarcoma 180 solid tumor", "result": 0.726, "unit": "g"}
    ]}
  ]
}
